Values quoted from earlier work in patent US10765664B2, “Treatment of infectious diseases” (CHILDREN'S MEDICAL CENTER CORPORATION, priority 2015, dated 2020).

Test system: nonreplicating MTb
Conditions: extremely high inocula; cited from earlier work

Structure (SMILES): CC(=O)Oc1ccccc1C(=O)Nc1ncc([N+](=O)[O-])s1 [NTZ, [2-[(5-nitro-1,3-thiazol-2-yl)carbamoyl]phenyl] ethanoate]
- resistance mutants: no evidence of resistance mutants
